Reference: US20120088803A1, “CONTROL AGENT FOR SOFT ROT AND CONTROL METHOD FOR THE SAME” (Ishihara Sangyo Kaisha, Ltd, priority 2009, published 2012)

Tested on: Erwinia carotovora (potato Erwinia carotovora)
Assay: Test for growth inhibition of potato Erwinia carotovora (PSA medium plate)
Type: cell-based
Details: for Growing state of Erwinia carotovora (formed colonies): PSA medium, 25 degrees C., 4 days, two plates per cell
Experimental: Reference test example: Test for growth inhibition of potato Erwinia carotovora
A test for growth inhibition of Erwinia carotovora in the case of direct application of the control agent to Erwinia carotovora was performed. To previously melted PSA medium (55 degrees C.), a predetermined amount of a pesticide 3-chloro-N-(3-chloro-5-trifluoromethyl-2-pyridyl)-alpha,alpha,alpha-trifluoro-2,6-dinit ro-p-toluidine (fluazinam, Frowncide SC (trade name), manufactured by Ishihara Sangyo Kaisha, Ltd.), ethaboxam wettable powder (Ethaboxam, Gardian (trade name), manufactured by LG Chemical), or streptomycin (Mycin wettable powder (trade name), manufactured by Hokko Chemical Industry Co., Ltd.) and a suspension of Erwinia carotovora (potato Erwinia carotovora) were added and the resulting mixture was stirred well, and then, poured in a plate. Then, the plate was cultured at 25 degrees C. for 4 days, and the growing state of Erwinia carotovora was examined. Thereafter, the formed colonies were examined according to the following three criteria. • +: Equal to the colonies of the untreated group • Plus or minus: Apparently less than the colonies of the untreated group • −: Almost no colonies

For CCNc1nc(CC)c(C(=O)NC(C#N)c2cccs2)s1 (stereo not shown) [Ethaboxam WP, ethaboxam], the “Growing state of Erwinia carotovora (formed colonies)” value (from here on “Growing state of Erwinia carotovora”) (Active ingredient concentration 100 ppm) was “+, +”, the “Growing state of Erwinia carotovora” value (Active ingredient concentration 500 ppm) was “+, +” and the “Growing state of Erwinia carotovora” value (Active ingredient concentration 1000 ppm) was “+, +”. The “Growth inhibition of Erwinia carotovora (in words)” value (active ingredient concentration of 1000 ppm, direct application) was “did not inhibit the growth”.
